In US20240207285A1 (Melt Pharmaceuticals, Inc., priority 2022, published 2024):

Columns and labels:
[1] = Phase 1 relative bioavailability study: plasma pharmacokinetics of midazolam, 1-hydroxymidazolam, ketamine and norketamine
Procedure: PK analysis was performed using noncompartmental methods in Phoenix WinNonlin® (Version 8.1, Certara, L.P.) in conjunction with the internet-accessible implementation of the Pharsight® Knowledgebase Server™ (PKSO; Version 4.0.4, Certara, L.P). PKSO provides protected and structured storage, audit trails, and version control for study data, analyses, and related files, supporting 21 CFR Part 11 compliance. The analysis was performed in accordance with the Statistical Analysis Plan (Version 1.0, 5 Jan. 2021).
During the PK analysis, concentrations below the limit of quantitation (BLQ) up to the time of the first quantifiable concentration were treated as zero. Embedded (values between 2 quantifiable concentrations) and terminal BLQ concentrations were treated as “missing”. Calculation of the PK characteristics were based on actual elapsed times [h] (relative to time of dose).
All PK analyses were performed on the data from the PK Analysis Population. […] The ANOVA model included factors for sequence, subject within sequence, treatment, and period.

[2] = tested on: healthy adult subjects; test: Phase 1 sedation level by Ramsay sedation scale (RSS); assay type: in vivo, human
Procedure: (§1) Pharmacodynamic parameters included sedation, defined as time to onset of sedation and sedation level, assessed using the Ramsay sedation scale (RSS), and cardiodynamics assessed by QTcF, heart rate, and PR and QRS intervals, and T-wave morphology and U-wave presence, extracted from ECGs collected via Holter monitor from predose through 24 hours postdose.
All pharmacodynamic analyses were performed on data from the Safety Population. The RSS scores were summarized by treatment and by timepoint. Time to onset of sedation was summarized by treatment and presented graphically.

[3] = tested on: healthy adult subjects; test: Phase 1 adverse events; assay type: in vivo, human
Text: (§2) The Investigator evaluated safety using physical and oral examinations, O2 saturation (SpO2), vital sign measurements, clinical laboratory evaluations, electrocardiograms (ECGs), reported or observed adverse events (AEs), and assessments of neurocognitive function. Subjects were monitored for any AEs from the first dose through the end of the study.
Adverse events were coded using the Medical Dictionary for Regulatory Activities (MedDRA, version 22.0, or later) terms and summarized by system organ class (SOC) and preferred term (PT) within SOC. The number and percentage of subjects reporting TEAEs were summarized by reported SOC and PT for each treatment and the population overall. TEAEs were also summarized by maximum severity and nearest relationship to study drug, by SOC and PT for each treatment.
A by-subject AE (including treatment-emergent) data listing, including but not limited to verbatim term, SOC, PT, severity, and relationship to study treatment, was provided. Deaths, SAEs, and other significant AEs, including those leading to early termination of study treatments were listed.

[4] = tested on: healthy adult subjects; test: Phase 1 vital signs and pulse oximetry; assay type: in vivo, human; settings: for Mean changes from baseline in systolic and diastolic blood pressures: MELT-100 3/25 mg and 6/25 mg (so in the source), midazolam 3.5 mg IV, ketamine 18 mg IV, each timepoint
Text: as §2
(§3) Vital signs, clinical laboratory values (hematology, serum chemistry, and urinalysis), and 12-lead ECG parameters were summarized by treatment including any abnormal values flagged.

[5] = tested on: healthy adult subjects; test: Phase 1 electrocardiograms / cardiodynamics; assay type: in vivo, human; settings: one subject, 24 hours after midazolam 3.5 mg IV; not considered clinically significant
Procedure: as §1
An analysis of categorical outliers was performed for changes in heart rate; PR, QRS, and QTcF intervals; T-wave morphology; and U-wave presence.
as §3

[6] = Treatment D: ketamine 18 mg IV, mean
[7] = 5 minutes after ketamine 18 mg IV
[8] = Treatment C: midazolam 3.5 mg IV, mean

Which results are given for `CNC1(c2ccccc2Cl)CCCCC1=O` (centres unmarked) [Ketamine, 2-(2-chlorophenyl)-2-(methylamino)cyclohexanone]?
AUCExtrap, ketamine [1, 6]: 9.64%; CL, ketamine [1, 6]: 59.9 L/h; Clast, ketamine [1, 6]: 1.99 ng/mL; half-life ([1]; human, plasma, iv, 18 mg): 618 min; AUC(0-t) ([1]; human, plasma, iv, 18 mg, AUC0-t, ketamine, Treatment D: ketamine 18 mg IV, mean): 283 ng·h/mL; AUC(0-inf) ([1]; human, plasma, iv, 18 mg, AUCinf, ketamine, Treatment D: ketamine 18 mg IV, mean): 316 ng·h/mL; Cmax ([1]; human, plasma, iv, 18 mg, Cmax, ketamine, Treatment D: ketamine 18 mg IV, mean): 250 ng/mL; AUC(0-t) ([1]; human, plasma, iv, 18 mg, GeoMean AUC0-t, ketamine, Ref (D) ketamine 18 mg IV, least squares geometric mean): 277 ng·h/mL; AUC(0-inf) ([1]; human, plasma, iv, 18 mg, GeoMean AUCinf, ketamine, Ref (D) ketamine 18 mg IV, least squares geometric mean): 307 ng·h/mL; Cmax ([1]; human, plasma, iv, 18 mg, GeoMean Cmax, ketamine, Ref (D) ketamine 18 mg IV, least squares geometric mean): 208 ng/mL; Tmax ([1]; human, plasma, iv, 18 mg, Tmax, ketamine, Treatment D: ketamine 18 mg IV, median (range)): 10 min; Subjects with RSS score of 1 [2, 7]: 1 (4.0%) subjects (%); Subjects with RSS score of 5 [2, 7]: 1 (4.0%) subjects (%); Highest proportion of subjects with RSS scores >2 postdose ([2]; ketamine 18 mg IV): ~8%; Treatment-related AEs of hypertension ([3]; ketamine 18 mg IV): 3 AEs; Mean changes from baseline in systolic and diastolic blood pressures [4]: highest at the 10-minute timepoint

For `Cc1ncc2n1-c1ccc(Cl)cc1C(c1ccccc1F)=NC2` [Midazolam, 8-chloro-6-(2-fluorophenyl)-1-methyl-4H-imidazo[1,5-a][1,4]benzodiazepine], which “AUCExtrap, midazolam” value [1, 8] is on record?
Its value is 5.58%.

What about the “Clast, midazolam” value [1, 8] of the same compound?
Its value is 0.963 ng/mL.

What about the Vd ([1]; human, plasma, iv, 3.5 mg) of the same compound?
The Vd was 202 L.

And the clearance ([1]; human, plasma, iv, 3.5 mg)?
Its clearance is 348 mL/min.

And the half-life ([1]; human, plasma, iv, 3.5 mg)?
Its half-life is 420 min.

What about the AUC(0-t) ([1]; human, plasma, iv, 3.5 mg, AUC0-t, midazolam, Treatment C: midazolam 3.5 mg IV, mean) of the same compound?
Its AUC(0-t) is 168 ng·h/mL.

What about the AUC(0-inf) ([1]; human, plasma, iv, 3.5 mg, AUCinf, midazolam, Treatment C: midazolam 3.5 mg IV, mean) of the same compound?
Its AUC(0-inf) is 179 ng·h/mL.

What about the Cmax ([1]; human, plasma, iv, 3.5 mg, Cmax, midazolam, Treatment C: midazolam 3.5 mg IV, mean) of the same compound?
Its Cmax is 146 ng/mL.

And the AUC(0-t) ([1]; human, plasma, iv, 3.5 mg, GeoMean AUC0-t, midazolam, Ref (C) midazolam 3.5 mg IV, least squares geometric mean)?
Its AUC(0-t) is 164 ng·h/mL.

What about the AUC(0-inf) ([1]; human, plasma, iv, 3.5 mg, GeoMean AUCinf, midazolam, Ref (C) midazolam 3.5 mg IV, least squares geometric mean) of the same compound?
The AUC(0-inf) was 174 ng·h/mL.

What about the Cmax ([1]; human, plasma, iv, 3.5 mg, GeoMean Cmax, midazolam, Ref (C) midazolam 3.5 mg IV, least squares geometric mean) of the same compound?
Its Cmax is 127 ng/mL.

And the Tmax ([1]; human, plasma, iv, 3.5 mg, Median Tmax, midazolam, Treatment C: midazolam 3.5 mg IV)?
Its Tmax is 11 min.

What about the Tmax ([1]; human, plasma, iv, 3.5 mg, Tmax, midazolam, Treatment C: midazolam 3.5 mg IV, median (range)) of the same compound?
Its Tmax is 11 min.

What about the “Subjects with RSS scores of 3” value ([2]; 5 minutes after midazolam 3.5 mg IV) of the same compound?
The value was 2 (8.3%) subjects (%).

What about the “Highest proportion of subjects with RSS scores >2 postdose” value ([2]; midazolam 3.5 mg IV) of the same compound?
Its value is ~54%.

What about the “Number of treatment-related AEs” value ([3]; midazolam 3.5 mg IV) of the same compound?
The value was 2 events.

And the “Mean changes from baseline in systolic and diastolic blood pressures” value [4]?
Its value is “minimal and similar”.

And the “Mean change from baseline in pulse oximetry” value ([4]; midazolam 3.5 mg IV at 10 minutes postdose, MELT-100 6/50 mg at 30 minutes postdose, minimal at 2 hours)?
The value was “small mean decrease from baseline”.

What about the PR duration [5] of the same compound?
The PR duration was “abnormal”.
